Active and inactive are the calls of the source. The rule behind the calls is not given here.
Key:
[1] = system: MDA-MB-231; assay: Downregulation of ATR mRNA expression in human MDA-MB-231 cells incubated for 12 hrs by RT-qPCR analysis; assay type: functional, cell-based; settings: dose 60-300 nM
[2] = target: T1, Protein cereblon/Cyclin-dependent kinase 13 (Homo sapiens) (UniProt Q14004+Q96SW2); assay: PROTAC activity at CRBN/CDK13 in human MDA-MB-436 cells assessed as induction of CDK13 degradation incubated for 15 hrs by immunoblotting analysis; assay type: cell-based; settings: dose 0.01-3 µM
T1 sequence (Q14004 whole entry, looked up): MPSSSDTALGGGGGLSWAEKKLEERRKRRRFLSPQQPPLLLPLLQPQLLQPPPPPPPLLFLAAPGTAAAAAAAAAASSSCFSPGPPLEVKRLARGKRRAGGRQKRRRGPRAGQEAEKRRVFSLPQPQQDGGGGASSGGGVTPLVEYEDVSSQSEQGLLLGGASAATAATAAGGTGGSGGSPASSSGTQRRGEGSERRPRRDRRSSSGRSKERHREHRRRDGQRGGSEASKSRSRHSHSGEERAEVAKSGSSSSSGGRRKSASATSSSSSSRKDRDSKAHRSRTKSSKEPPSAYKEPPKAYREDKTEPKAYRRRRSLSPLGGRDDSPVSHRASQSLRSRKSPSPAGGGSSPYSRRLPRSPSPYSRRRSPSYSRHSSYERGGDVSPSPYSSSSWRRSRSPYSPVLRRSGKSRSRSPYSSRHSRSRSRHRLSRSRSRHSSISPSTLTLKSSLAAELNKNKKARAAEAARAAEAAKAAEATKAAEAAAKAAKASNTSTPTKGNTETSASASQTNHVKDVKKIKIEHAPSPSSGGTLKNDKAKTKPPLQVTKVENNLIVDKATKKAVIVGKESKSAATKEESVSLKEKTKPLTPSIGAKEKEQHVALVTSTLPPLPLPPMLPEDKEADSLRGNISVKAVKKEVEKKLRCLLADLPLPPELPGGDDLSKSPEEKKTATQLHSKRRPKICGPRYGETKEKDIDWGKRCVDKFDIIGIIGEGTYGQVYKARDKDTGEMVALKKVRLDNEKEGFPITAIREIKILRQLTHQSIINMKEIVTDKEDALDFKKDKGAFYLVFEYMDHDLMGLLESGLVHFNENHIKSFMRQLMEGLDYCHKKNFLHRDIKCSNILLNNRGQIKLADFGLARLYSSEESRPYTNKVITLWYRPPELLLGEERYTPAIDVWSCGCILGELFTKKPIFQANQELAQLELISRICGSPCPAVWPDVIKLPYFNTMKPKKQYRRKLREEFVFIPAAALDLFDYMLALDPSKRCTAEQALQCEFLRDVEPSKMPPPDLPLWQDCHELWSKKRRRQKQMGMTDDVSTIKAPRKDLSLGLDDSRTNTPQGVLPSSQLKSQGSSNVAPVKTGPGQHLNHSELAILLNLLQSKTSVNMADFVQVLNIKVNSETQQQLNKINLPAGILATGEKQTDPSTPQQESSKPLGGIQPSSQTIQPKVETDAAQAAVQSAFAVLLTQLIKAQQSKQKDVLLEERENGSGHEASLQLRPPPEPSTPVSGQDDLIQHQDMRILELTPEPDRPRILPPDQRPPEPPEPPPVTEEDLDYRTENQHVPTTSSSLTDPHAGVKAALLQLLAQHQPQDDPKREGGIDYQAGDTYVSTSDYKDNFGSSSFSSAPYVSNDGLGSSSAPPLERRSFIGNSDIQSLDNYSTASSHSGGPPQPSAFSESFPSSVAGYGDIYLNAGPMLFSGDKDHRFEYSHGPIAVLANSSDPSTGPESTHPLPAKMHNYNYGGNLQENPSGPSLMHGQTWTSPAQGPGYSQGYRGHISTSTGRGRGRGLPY
T1 sequence (Q96SW2 whole entry, looked up): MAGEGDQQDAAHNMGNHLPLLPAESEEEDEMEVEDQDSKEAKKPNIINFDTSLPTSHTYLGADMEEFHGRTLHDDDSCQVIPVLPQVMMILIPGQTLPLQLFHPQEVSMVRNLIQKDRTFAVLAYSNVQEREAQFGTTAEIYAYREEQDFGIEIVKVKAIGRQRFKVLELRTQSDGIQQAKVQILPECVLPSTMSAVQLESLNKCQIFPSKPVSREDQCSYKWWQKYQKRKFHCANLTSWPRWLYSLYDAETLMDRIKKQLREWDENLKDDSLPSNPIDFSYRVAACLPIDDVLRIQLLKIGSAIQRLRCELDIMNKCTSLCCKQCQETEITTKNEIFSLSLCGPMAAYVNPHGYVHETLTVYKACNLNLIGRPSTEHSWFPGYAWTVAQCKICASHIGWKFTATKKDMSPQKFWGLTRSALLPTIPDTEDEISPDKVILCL

[3] = system: MDA-MB-231; assay: Induction of CCNK degradation in human MDA-MB-231 cells at 2 uM incubated for 8 hrs by global proteomic analysis; assay type: cell-based
[4] = system: MDA-MB-231; assay: Synergistic antiproliferative activity against human MDA-MB-231 cells assessed as combination index at 7.5 uM incubated for 5 days in presence of olaparib by CCK8 assay; assay type: functional; settings: time 5 day
[5] = Antiproliferative activity against human MCF-10A cells assessed as inhibition of cell growth incubated for 5 days by CCK8 assay; assay type: toxicity, cell-based
[6] = system: MDA-MB-231; assay: Downregulation of RAD51 protein level in human MDA-MB-231 cells at 0.1 to 0.5 uM incubated for 48 hrs by immunoblotting analysis; assay type: functional, cell-based; settings: dose 0.1-0.5 µM
[7] = system: MDA-MB-231; assay: Downregulation of SMARCC mRNA expression in human MDA-MB-231 cells incubated for 12 hrs by RT-qPCR analysis; assay type: functional, cell-based; settings: dose 60-300 nM
[8] = target: T1, Protein cereblon/Cyclin-dependent kinase 13 (Homo sapiens); assay: PROTAC activity at CRBN/CDK13 in human MDA-MB-231 cells assessed as induction of CDK13 degradation at 1 uM by immunoblotting analysis; assay type: cell-based; settings: time <= 24.0 hrs, TDE = time-dependent effect
[9] = system: MDA-MB-231; assay: Synergistic antiproliferative activity against human MDA-MB-231 cells assessed as inhibition of cell growth at 0.3 to 7.5 uM incubated for 5 days in presence of olaparib by CCK8 assay; assay type: functional, cell-based; settings: dose 0.3-7.5 µM, time 5.0 day
[10] = system: MDA-MB-231; assay: Downregulation of BRCA1 protein level in human MDA-MB-231 cells at 0.1 to 0.5 uM incubated for 48 hrs by immunoblotting analysis; assay type: functional, cell-based; settings: dose 0.1-0.5 µM
[11] = system: MDA-MB-231; assay: Synergistic antiproliferative activity against human MDA-MB-231 cells assessed as combination index at 1.5 uM incubated for 5 days in presence of cisplatin by CCK8 assay; assay type: functional; settings: time 5 day
[12] = Toxicity in female CB17SCID mouse model xenografted with human MDA-MB-231 cells assessed as body weight loss at 100 to 200 mg/kg, po administered for 5 days; assay type: organism-based; settings: in vivo, 120 h, dose 100-200 mg/kg, time 5 day
[13] = target: T1, Protein cereblon/Cyclin-dependent kinase 13 (Homo sapiens); assay: PROTAC activity at CRBN/CDK13 in human MDA-MB-231 cells assessed as induction of CDK13 degradation at 1 uM pretreated with pomalidomide followed by compound addition and measured after 10 hrs by immunoblotting analysis; assay type: cell-based
[14] = system: MDA-MB-231; assay: Downregulation of ATM mRNA expression in human MDA-MB-231 cells incubated for 12 hrs by RT-qPCR analysis; assay type: functional, cell-based; settings: dose 60-300 nM
[15] = target: T1, Protein cereblon/Cyclin-dependent kinase 13 (Homo sapiens); assay: PROTAC activity at CRBN/CDK13 in human MDA-MB-231 cells assessed as induction of CDK13 degradation at 1 uM pretreated with MG132 followed by compound addition and measured after 10 hrs by immunoblotting analysis; assay type: cell-based
[16] = target: T1, Protein cereblon/Cyclin-dependent kinase 13 (Homo sapiens); assay: PROTAC activity at CRBN/CDK13 in human MDA-MB-231 cells assessed as induction of CDK13 degradation at 2 uM by […] proteomic analysis; assay type: cell-based
[17] = system: MDA-MB-231; assay: Downregulation of FANCD2 mRNA expression in human MDA-MB-231 cells incubated for 12 hrs by RT-qPCR analysis; assay type: functional, cell-based; settings: dose 60-300 nM

## N#Cc1ccc(N[C@H]2CC[C@H](N(C(=O)NCc3ccccc3)c3ccc(N4CCN(C5CCN(c6cc7c(cc6F)C(=O)N(C6CCC(=O)NC6=O)C7=O)CC5)CC4)cc3)CC2)nc1 (some centres not stated)
[1]
  Activity: Dose-Dependent Effect
[2]
  Activity: Dose-Dependent Effect
[3]
  Activity: Active
[4]
  CI: 0.85
[5]
  IC50 at 5 days: > 10 µM
[6]
  Activity: Active
[7]
  Activity: Dose-Dependent Effect
[8]
  Activity: Tde
[9]
  Activity: Active
[10]
  Activity: Active
[11]
  CI: 0.17
[12]
  Activity: Non-Toxic
[13]
  Activity: inactive
[14]
  Activity: Dose-Dependent Effect
[15]
  Activity: inactive
[16]
  Activity: Active
[17]
  Activity: Dose-Dependent Effect

Reference: ChEMBL document CHEMBL6071181, “Discovery of ZLC491 as a Potent, Selective, and Orally Bioavailable CDK12/13 PROTAC Degrader” (J Med Chem, 2024)
